The target of experiment [1] is T1, Δ49N-hChoKα (Homo sapiens, UniProt P35790).
T1 construct: cDNA fragment 362-1534, corresponding to aminoacids 50 457; GST (N, cleaved yes); PreScission Protease recognition site (N); made in house; host or cells: Escherichia coli BL21pLysS (DE3)
Nature of the experiment: Biochemical kinase inhibition assay (Kinase-Glo luminescent) on Δ49N-hChoKα. Particulars: recombinant Δ49N-hChoKα 2.2 nM, ATP 5 μM, choline 5 μM, 60 min rt; read-out: ChoKα IC50. The procedure: (§1) HumanΔ49ChoKα ([…]Δ49N-hChoKα) cDNA fragment 362-1534, corresponding to aminoacids 50 457 (J. Mol. Biol. 2006, 364, 136-151), and hChoKβ full length (FL), corresponding to aminoacids 2-395 ((PLoS ONE 2009, 4, e7819), were amplified by PCR from human library and cloned, inserting upstream a Prescission Protease recognition site, in pDonor 221 vector, using the Gateway Technology® (Invitrogen). After sequence control, LR reaction was performed in the final expression pGEX 2Tg vector. Both the proteins were expressed in Escherichia coli BL21pLysS (DE3) strain in auto-induction (Kessler) medium in the presence of […] carbenicillin at 25° C. for 16 h. Cells were harvested by centrifugation, the pellet was re-suspended in Lysis buffer (50 mM Tris-HCl pH 7.8, 150 mM NaCl, 10% glycerol, 0.2% CHAPS, 20 mM DTT, Protease Inhibitor Cocktail Tablets from Roche Biochemicals) and lysed by Gaulin homogenizer (Niro Soavi). The lysate was cleared by centrifugation. The supernatant was added to GSH resin and let flow by gravity. The GSH resin was washed with 5 column volume (CV) of cold wash buffer (50 mM Tris-HCl pH 7.8, 150 mM NaCl, 10% glycerol), then with 10 CV of the same buffer containing 2 mM of DTT. Both GST-Δ49N-hChoKα and hChoKβ were subjected to on-column cleavage of the GST tag with Prescission Protease overnight. The eluted cleaved proteins were further purified by ion exchange (ResQ 6 mL chromatography column from GE healthcare) with a gradient from 50 to 500 mM NaCl in 30 CV. The fractions containing […]Δ49N-hChoKα or hChoKβ were pooled, concentrated and gel filtered on a Superdex200 16/60 (GE Healthcare). The final protein concentration was estimated using the Bradford assay. All the samples purified were resolved by SDS-PAGE.
(§2) Biochemical Kinase inhibition Assay on Δ49N-hChoKα and hChoKβFL
(§3) The biochemical activity of compounds against Δ49N-ChoKα and ChoK3 FL were determined using the Kinase-Glo™ Luminescent Kinase Assay (Promega cat. V6711). The assay is based on incubation of the recombinant Δ49N-hChoKα and hChoKβ FL produced in house, 2.2 nM and 30 nM, respectively, with the specific substrates, choline (Sigma-Aldrich-C7017) and ATP, followed by quantification, at the end of reaction time, of the residual not reacted ATP.
(§4) Compounds were 3-fold serially diluted from 10 to 0.0005 μM, then incubated for 60 minutes at room temperature in the presence of ATP 5 μM, choline (5 μM for ChoKα and 20 μM for ChoKβ) and enzyme in a final volume of 19 μL of kinase buffer (50 mM Hepes pH 7.5, 10 mM MgCl2, 1 mM DTT, 3 μM Na3VO4 and 0.2 mg/mL BSA). The final concentration of DMSO was 1%. The assay was run in a robotized format on 384-well plates (Perkin Elmer cat. #6005301).
(§5) At the end of the incubation, an amount of 19 μL of KinaseGlo Reagent was added to each well to stop the reaction and after 30 minutes the luminescence signal was measured using ViewLux reader (Perkin Elmer).
(§6) All information about plate dilution, distribution and raw data of inhibition are tracked via barcode reading and stored in an Oracle DB. The data per each molecule are analyzed by an internally customized version of the SW package “Assay Explorer” which provides sigmoidal fittings of the ten-dilution curves for IC50 determination using a 4 parameter logistic equation: y=bottom+(top−bottom)/(1+10^((log IC50−x)*slope)) where x is the logarithm of the inhibitor concentration, y is the response; y starts at bottom and goes to top with a sigmoid shape.

The target in experiment [2] is T2, hChoKβ FL (Homo sapiens, UniProt Q9Y259).
T2 construct: hChoKβ full length (FL), corresponding to aminoacids 2-395; GST (N, cleaved yes); PreScission Protease recognition site (N); made in house; host or cells: Escherichia coli BL21pLysS (DE3)
T2 sequence (Q9Y259 2-395): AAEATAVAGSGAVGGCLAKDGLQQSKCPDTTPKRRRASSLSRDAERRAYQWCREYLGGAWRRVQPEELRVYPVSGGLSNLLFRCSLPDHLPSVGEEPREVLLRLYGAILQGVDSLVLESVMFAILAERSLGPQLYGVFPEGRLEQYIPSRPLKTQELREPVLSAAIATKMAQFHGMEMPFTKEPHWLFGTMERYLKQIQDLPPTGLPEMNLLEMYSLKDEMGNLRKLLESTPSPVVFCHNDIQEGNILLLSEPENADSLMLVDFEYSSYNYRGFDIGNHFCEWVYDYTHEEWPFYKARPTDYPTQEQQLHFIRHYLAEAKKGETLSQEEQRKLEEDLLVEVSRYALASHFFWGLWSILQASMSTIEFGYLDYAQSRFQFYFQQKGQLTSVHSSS
The experiment in a line: Biochemical kinase inhibition assay (Kinase-Glo luminescent) on hChoKβ FL. Particulars: recombinant hChoKβ FL 30 nM, ATP 5 μM, choline 20 μM, 60 min rt; read-out: ChoKβ IC50. The procedure:
as §1, §2, §3, §4, §5, §6

Consider 36 compounds from US11117901B2, “Substituted pyrazolo[4,3-h]quinazolines as choline kinase inhibitors” (NERVIANO MEDICAL SCIENCES S.R.L., priority 2017, dated 2021).

Some results are limits rather than exact numbers.

T1 sequence (P35790 50-439 isoform P35790-2): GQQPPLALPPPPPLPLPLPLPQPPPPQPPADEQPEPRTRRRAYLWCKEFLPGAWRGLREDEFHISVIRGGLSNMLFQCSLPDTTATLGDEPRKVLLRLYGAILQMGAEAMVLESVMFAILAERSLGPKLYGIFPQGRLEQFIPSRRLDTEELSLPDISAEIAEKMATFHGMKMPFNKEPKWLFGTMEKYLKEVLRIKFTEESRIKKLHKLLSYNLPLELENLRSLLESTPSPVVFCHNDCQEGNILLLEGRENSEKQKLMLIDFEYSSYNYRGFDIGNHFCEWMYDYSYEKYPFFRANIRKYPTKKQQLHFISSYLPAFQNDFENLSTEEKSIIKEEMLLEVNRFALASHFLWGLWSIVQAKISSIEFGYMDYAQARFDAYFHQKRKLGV

As for `CC1(C)Cc2cnc(N)nc2-c2[nH]nc(C(=O)Nc3ncc(CC(=O)O)s3)c21` [compound 72], the figures for the IC50 in experiment [1] and in experiment [2] were 268 nM and 2510 nM, respectively.
Taken in the same sequence, the figures for `CC1(C)Cc2cnc(N)nc2-c2[nH]nc(C(=O)Nc3ncc(CC(=O)NC4CCCCC4)s3)c21` [compound 73] were 138 nM and 604 nM.
For `CN1CCC(NC(=O)Cc2cnc(NC(=O)c3n[nH]c4c3C(C)(C)Cc3cnc(N)nc3-4)s2)CC1` [compound 74] the same measures were 79 nM and 1350 nM.
For `CC1(C)Cc2cnc(N)nc2-c2[nH]nc(C(=O)Nc3ncc(CC(=O)N4CCC(N5CCCCC5)CC4)s3)c21` [compound 75] the same measures were 47 nM and 1750 nM.
On to `Cc1nc(NC(=O)c2n[nH]c3c2C(C)(C)Cc2cnc(N)nc2-3)sc1C(=O)NC1CCCCC1` [compound 77], for which the values for the IC50 in experiment [1] and in experiment [2] were 200 nM and 1160 nM, respectively.
Regarding `Cc1nc(NC(=O)c2n[nH]c3c2C(C)(C)Cc2cnc(N)nc2-3)sc1C(=O)N1CCC(N2CCCCC2)CC1` [compound 78], the half-inhibitory concentration (IC50) in experiment [1] was 218 nM; in experiment [2], 2590 nM.
For `Cc1nc(NC(=O)c2n[nH]c3c2C(C)(C)Cc2cnc(N)nc2-3)sc1C(=O)NC1CCN(C)CC1` [compound 79] the same measures were 69 nM and 2380 nM.
Take `CC1CCN(C2CCN(C(=O)Cc3csc(NC(=O)c4nn(C)c5c4C(C)(C)Cc4cnc(N)nc4-5)n3)CC2)CC1` [compound 80]: the IC50 in experiment [1] was 5 nM; in experiment [2] it was 3160 nM.
Taken in the same sequence, the figures for `CCOC(=O)c1cnc(NC(=O)c2n[nH]c3c2C(C)(C)Cc2cnc(N)nc2-3)s1` [compound 81] were 428 nM and 5340 nM.
With `CC1(C)Cc2cnc(N)nc2-c2[nH]nc(C(=O)Nc3ncc(C(=O)O)s3)c21` [compound 82], the IC50 stood at 300 nM in experiment [1] and 1730 nM in experiment [2].
As for `CC1(C)Cc2cnc(N)nc2-c2[nH]nc(C(=O)Nc3ncc(C(=O)N4CCC(N5CCCCC5)CC4)s3)c21` [compound 84], the figures for the concentration for half-maximal inhibition (IC50) in experiment [1] and in experiment [2] were 111 nM and 1330 nM, respectively.
Taken in the same sequence, the figures for `CNc1ncc2c(n1)-c1c(c(C(=O)Nc3nc(CC(=O)N4CCC(N5CCC(C)CC5)CC4)cs3)nn1C)C(C)(C)C2` [compound 85] were 52 nM and over 10000 nM.
On to `CN1CCC(NC(=O)Cc2csc(NC(=O)c3n[nH]c4c3C(C)(C)Cc3cnc(N)nc3-4)n2)CC1` [compound 86], for which the figures for the IC50 in experiment [1] and in experiment [2] were 57 nM and 1390 nM, respectively.
Take `CC1(C)Cc2cnc(N)nc2-c2[nH]nc(C(=O)Nc3nc(CC(=O)N4CC[C@@H](O)C4)cs3)c21` [compound 87]: the IC50 is 149 nM in experiment [1] and over 10000 nM in experiment [2].
As for `CC1(C)Cc2cnc(N)nc2-c2[nH]nc(C(=O)Nc3nc(CC(=O)N4CC[C@H](O)C4)cs3)c21` [compound 88], the IC50 in experiment [1] was 141 nM; in experiment [2], over 10000 nM.
Taken in the same sequence, the figures for `CN(C)C1CCN(C(=O)Cc2csc(NC(=O)c3n[nH]c4c3C(C)(C)Cc3cnc(N)nc3-4)n2)CC1` [compound 89] were 10 nM and 400 nM.
With `CC1(C)Cc2cnc(N)nc2-c2[nH]nc(C(=O)Nc3nc(CC(=O)N4CCC(C(N)=O)CC4)cs3)c21` [compound 90], the IC50 was 161 nM in experiment [1] and over 10000 nM in experiment [2].
For `CC1(C)Cc2cnc(N)nc2-c2[nH]nc(C(=O)Nc3nc(CC(=O)N4CCC(CO)CC4)cs3)c21` [compound 91], the IC50 in experiment [1] was 98 nM; in experiment [2], over 10000 nM.
Taken in the same sequence, the figures for `CC1(C)Cc2cnc(N)nc2-c2[nH]nc(C(=O)Nc3nc(CC(=O)N4CCC(O)CC4)cs3)c21` [compound 92] were 228 nM and over 10000 nM.
For `CN(C)[C@H]1CCN(C(=O)Cc2csc(NC(=O)c3n[nH]c4c3C(C)(C)Cc3cnc(N)nc3-4)n2)C1` [compound 93] the same measures were 12 nM and 761 nM.
In the case of `CC1(C)Cc2cnc(N)nc2-c2[nH]nc(C(=O)Nc3nc(CC(N)=O)cs3)c21` [compound 94], the concentration for half-maximal inhibition (IC50) in experiment [1] was 73 nM; in experiment [2], 1420 nM.
Turning to `CN(C)CCCNC(=O)Cc1csc(NC(=O)c2n[nH]c3c2C(C)(C)Cc2cnc(N)nc2-3)n1` [compound 95], the IC50 in experiment [1] was determined as 15 nM; in experiment [2], 126 nM.
Taken in the same sequence, the figures for `CCOC(=O)Cc1ccc(NC(=O)c2n[nH]c3c2C(C)(C)Cc2cnc(N)nc2-3)cc1` [compound 96] were 198 nM and 934 nM.
On to `CC1(C)Cc2cnc(N)nc2-c2[nH]nc(C(=O)Nc3ccc(CC(=O)N4CCC(N5CCCCC5)CC4)cc3)c21` [compound 98], for which the values for the IC50 in experiment [1] and in experiment [2] were 57 nM and 1290 nM, respectively.
For `CC1(C)Cc2cnc(N)nc2-c2[nH]nc(C(=O)Nc3ccc(O)cc3)c21` [compound 105] the same measures were 229 nM and 398 nM.
For `CC1(C)Cc2cnc(N)nc2-c2[nH]nc(C(=O)Nc3cccc(C4OCCCO4)c3)c21` [compound 106] the same measures were 343 nM and 5200 nM.
In the case of `CC1(C)Cc2cnc(N)nc2-c2[nH]nc(C(=O)Nc3cccc(C=O)c3)c21` [compound 107], the IC50 in experiment [1] is 737 nM; in experiment [2], 2680 nM.
For `Cn1nc(C(=O)Nc2nc(CC(=O)N3CCC(N4CCCCC4)CC3)cs2)c2c1-c1nc(N)ncc1CC2(C)C` [compound 108] the same measures were 5 nM and 3970 nM.
Taken in the same sequence, the figures for `Cn1nc(C(=O)Nc2cccc(CN3CCC(N4CCCCC4)CC3)c2)c2c1-c1nc(N)ncc1CC2(C)C` [compound 109] were 431 nM and over 10000 nM.
As for `CC1(C)Cc2cnc(N)nc2-c2[nH]nc(C(=O)Nc3cccc(CN4CCC(N5CCCCC5)CC4)c3)c21` [compound 110], the IC50 in experiment [1] is 135 nM; in experiment [2], 2850 nM.
Consider `CC1CCN(C2CCN(Cc3cccc(NC(=O)c4nn(C)c5c4C(C)(C)Cc4cnc(N)nc4-5)c3)CC2)CC1` [compound 111], for which the values for the IC50 in experiment [1] and in experiment [2] were 640 nM and over 10000 nM, respectively.
As for `CC1CCN(C2CCN(Cc3cccc(NC(=O)c4n[nH]c5c4C(C)(C)Cc4cnc(N)nc4-5)c3)CC2)CC1` [compound 112], the results for the IC50 in experiment [1] and in experiment [2] were 187 nM and 2130 nM, respectively.
Taken in the same sequence, the figures for `CC(C)(C)OC(=O)NC1CCN(Cc2cccc(NC(=O)c3n[nH]c4c3C(C)(C)Cc3cnc(N)nc3-4)c2)CC1` [compound 114] were 562 nM and 2390 nM.
For `CN(C)[C@@H]1CCN(C(=O)Cc2csc(NC(=O)c3n[nH]c4c3C(C)(C)Cc3cnc(N)nc3-4)n2)C1` [compound 116] the same measures were 4 nM and 77 nM.
Taken in the same sequence, the figures for `CN(C)C1CCN(Cc2ccc(NC(=O)c3nn(C)c4c3C(C)(C)Cc3cnc(N)nc3-4)cc2)CC1` [compound 117] were 16 nM and over 10000 nM.
For `CN(C)C1CCN(Cc2ccc(NC(=O)c3n[nH]c4c3C(C)(C)Cc3cnc(N)nc3-4)cc2)CC1` [compound 118], the IC50 is 33 nM in experiment [1] and 72 nM in experiment [2].

In general, IC50 refers to the concentration that inhibits the measured activity by half.
